IC50 data for one compound are collected here from PMC4357015, “Structure, Function and Inhibition of the Phosphoethanolamine Methyltransferases of the Human Malaria Parasites Plasmodium vivax and Plasmodium knowlesi” (Scientific Reports, 2015).

This assay addresses T1, PvPMT (Plasmodium vivax, UniProt A5K867).
T1 sequence (A5K867 1-264): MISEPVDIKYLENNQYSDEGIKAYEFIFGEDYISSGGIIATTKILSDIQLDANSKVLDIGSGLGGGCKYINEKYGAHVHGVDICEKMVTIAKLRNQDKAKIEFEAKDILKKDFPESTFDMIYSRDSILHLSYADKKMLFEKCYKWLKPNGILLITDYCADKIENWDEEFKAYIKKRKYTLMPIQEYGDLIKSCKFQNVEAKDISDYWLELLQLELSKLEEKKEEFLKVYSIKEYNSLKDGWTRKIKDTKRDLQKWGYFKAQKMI
The assay can be described thus: radiometric PMT transmethylation assay, inhibition of PvPMT. The assay is classed as biochemical. As to conditions: P-Etn 2 mM, SAM 1.5 mM; inhibitor 0, 100, 500, 1000 μM; read-out: IC50, inhibition of PvPMT activity. The protocol: Figure 3 Amodiaquine (AQ) and NSC158011 inhibit the activity of PvPMT and PkPMT. Enzyme inhibition assays with different concentrations of Amodiaquine (AQ), NSC158011 and Chloroquine (CQ) were carried out at constant P-Etn (2 mM) and SAM (1.5 mM) concentrations. The activity in the absence of any drug was taken as 100% and % enzyme activity was calculated in the presence of different drug concentrations (100, 500, 1000 μM). To determine the concentration that results in 50% inhibition of enzyme activity (IC50), the data were fitted to a non-linear regression analysis in the following equation Y = 100/(1 + ([X]/IC50)), where Y is % enzyme activity and X is drug concentration using Graph pad software.
For enzyme kinetics studies recombinant histidine-tagged proteins were expressed using 1 mM IPTG for 4 h, purified using Ni-affinity purification and dialyzed. As expected, purified proteins migrated in SDS-PAGE gels at approximately 31 kDa. The purified proteins were stored in HEPES-KOH buffer (pH 7.4) at 4°C and were assayed within a month of purification. During this time, the integrity of the protein was assessed by SDS-PAGE. The kinetic properties of enzymes were assessed using radiometric assay wherein incorporation of radioactive labeled methyl donor (100nCi [methyl-^14C] SAM, Perkin elmer NEC363010UC) or (200nCi [methyl-^3H] SAM, Perkin Elmer NET155H250UC) was measured. […]

`CCN(CC)Cc1cc(Nc2ccnc3cc(Cl)ccc23)ccc1O` [AQ, amodiaquine]: the IC50 was determined as 220 µM.

What is called IC50 is the midpoint of a concentration-inhibition curve.
